Experimental data published in PubChem BioAssay AID493156 (Johns Hopkins Ion Channel Center, 2011).

Biological target: Voltage-gated inwardly rectifying potassium channel KCNH2 (Homo sapiens) (UniProt Q12809)
Assay: hERG potassium channel inhibitors, primary screen, automated electrophysiology, CHO cells, Ionworks Quattro (AID 493156)
Conditions: automated patch clamp current, stronger effect = lower value

Chain of Voltage-gated inwardly rectifying potassium channel KCNH2 (Homo sapiens) (Q12809 whole entry, looked up): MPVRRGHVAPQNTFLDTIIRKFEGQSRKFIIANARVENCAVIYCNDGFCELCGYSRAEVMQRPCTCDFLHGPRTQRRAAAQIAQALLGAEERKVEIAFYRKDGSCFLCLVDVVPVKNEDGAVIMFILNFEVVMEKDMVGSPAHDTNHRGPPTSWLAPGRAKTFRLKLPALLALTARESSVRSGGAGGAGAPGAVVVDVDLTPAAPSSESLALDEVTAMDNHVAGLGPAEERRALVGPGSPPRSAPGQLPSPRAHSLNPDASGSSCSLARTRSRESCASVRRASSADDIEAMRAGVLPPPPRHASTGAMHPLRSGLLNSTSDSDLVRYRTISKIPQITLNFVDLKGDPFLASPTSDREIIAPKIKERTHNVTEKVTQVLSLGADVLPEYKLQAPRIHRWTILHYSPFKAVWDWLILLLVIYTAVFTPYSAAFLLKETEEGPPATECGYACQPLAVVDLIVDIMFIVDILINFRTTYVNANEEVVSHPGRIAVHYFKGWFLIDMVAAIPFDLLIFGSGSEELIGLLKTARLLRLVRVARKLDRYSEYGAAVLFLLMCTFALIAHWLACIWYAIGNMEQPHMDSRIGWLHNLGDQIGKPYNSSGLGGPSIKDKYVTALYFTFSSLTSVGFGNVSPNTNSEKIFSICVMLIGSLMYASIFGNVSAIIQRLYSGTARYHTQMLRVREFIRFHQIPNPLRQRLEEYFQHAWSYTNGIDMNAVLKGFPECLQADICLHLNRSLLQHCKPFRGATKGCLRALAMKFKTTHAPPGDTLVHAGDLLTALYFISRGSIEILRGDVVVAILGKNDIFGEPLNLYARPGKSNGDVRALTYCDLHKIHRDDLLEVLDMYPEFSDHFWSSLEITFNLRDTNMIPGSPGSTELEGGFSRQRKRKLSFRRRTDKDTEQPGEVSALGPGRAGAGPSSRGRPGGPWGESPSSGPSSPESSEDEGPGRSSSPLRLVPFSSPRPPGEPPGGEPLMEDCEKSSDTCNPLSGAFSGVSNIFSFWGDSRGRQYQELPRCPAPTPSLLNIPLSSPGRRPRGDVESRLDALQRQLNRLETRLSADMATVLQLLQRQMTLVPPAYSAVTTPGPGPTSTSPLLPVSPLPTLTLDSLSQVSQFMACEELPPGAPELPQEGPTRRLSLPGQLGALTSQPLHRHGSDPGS

SMILES | current change, negative = inhibition (at 10 µM) [%] | current change, negative = inhibition (current change, at 1 µM) [%]
O=C(c1cccc(-c2ccco2)c1)N1CCCC(N2CCN(c3ccc(F)cc3)CC2)C1 (stereo not drawn) | -100 | -45.2
Cc1occc1C(=O)N1CCN(c2ccc([N+](=O)[O-])cc2)CC1 | -100 | -55.3
Cc1ccccc1CN1CCN(C(=O)c2cc(-c3ccncc3)nc3ccccc23)CC1 | -100 | -25.6
CCn1cc(CN2CCC(C(=O)Nc3cccc(-c4cccc(Cl)c4)c3)CC2)c(C)n1 | -100 | -48.6
CCc1ccc(CN2CCC(Oc3ccc(C(=O)N4CCCC4)cc3)CC2)cc1 | -100 | -87.6
Cc1ccc(-n2ncc3c2CCCC3NC(=O)c2ccoc2)cc1C (stereo not drawn) | -100 | -88.6
Cc1ccccc1C(=O)Nc1ccnn1C1CCN(Cc2cccnc2)CC1 | -100 | -58.5
Cc1cc(C)n(CCCN2CCC(C(=O)Nc3cccc(-c4cccc(F)c4)c3)CC2)n1 | -100 | -69.7
CSc1cccc(CN2CCCC(CNC(=O)c3ccco3)C2)c1 (stereo not drawn) | -100 | -57.7
